Assay results from patent publication US9458179B2, “Quinuclidine, 1-azabicyclo[2.2.1]heptane, 1-azabicyclo [3.2.1]octane, and 1-azabicyclo[3.2.2]nonane compounds as alpha-7 nicotinic acetylcholine receptor ligands” (BRISTOL-MYERS SQUIBB COMPANY, priority 2012, dated 2016).

target: T1, α-7 nicotinic ACh receptor ion channel (Rattus norvegicus, UniProt Q05941); assay: Ca2+-sensitive fluorescence-based FLIPR assay of α7 nicotinic receptor channel function (agonist activity); format: cell-based; settings: FLIPR α7-HI (EC50, nM), HEK 293 cells, Ca2+ flux
T1 construct: expressed in transfected cells
Experimental: II) A Ca^2+-Sensitive, Fluorescence-Based Assay α-7 for Nicotinic Acetylcholine Receptor Channel Function in Mammalian Cells (“FLIPR”).
Lead compounds are evaluated for agonist activity at α-7, α3β4, α4αβ2, and α1β1δ1ε sub-types of nicotinic ACh receptor ion channels expressed in mammalian HEK 293 cells. Agonist potency and efficacy values are determined from kinetic fluorescence Ca^2+ influx measurements made using a 384 well FLIPR (Fluorescence Image Plate Reader). […] In this assay, channel expressing HEK cell lines seeded in 384 well assay plates are loaded with a membrane permeant fluorescent Ca^2+ indicator dye, whose 510 nm green emission signal increases in response to elevation of intracellular Ca^2+ concentration. The basal fluorescence from the cells is monitored in real time, followed by the acute addition of test compounds.
Reagents: The acetomethoxy (AM) ester of the Ca^2+ indicator dye Fluo-4 was obtained from InVitrogen, (Carlsbad, Calif.). Acetylcholine and all buffer constituents were purchased from Sigma Chemical Company, St. Louis, Mo. G418 and Minimal Essential Medium were purchased from InVitrogen Life Technologies, Carlsbad, Calif. Fetal bovine serum was purchased from (InVitrogen, Carlsbad, Calif.).
HEK-293 cells were grown in Minimal Essential Medium containing 10% (v/v) fetal bovine serum at 37° C. in a 5% CO2 incubator. HEK-293 cells stably expressing the ion channels were grown in the same medium with the addition of 500 μg/ml G418.
HEK-293 cells expressing the ion channels of interest were plated in 384 well, black-walled, clear-bottomed, poly-D-lysine coated plates at a density of ˜20,000 cells/well in 20 μl of Minimal Essential Medium containing 10% (v/v) fetal bovine serum and incubated for 2 days at 29° C. in a 5% CO2 incubator. Prior to assay, cells were loaded with the Fluo-4 AM ester. […] Dye loading was allowed to proceed for 90 minutes at room temperature at which time the dye loading solution was removed and replaced with 40 μl/well of Hanks buffer. Cells loaded with dye were loaded onto a FLIPR384 (Molecular Devices, Sunnyvale, Calif.). […] Emission was filtered using a 540+/−30 nm bandpass filter. For evaluation of the effects of test compounds using the Ca^2+ flux assay, compounds to be tested were provided in assay ready plates. For nicotinic receptor ion channel expressing cells, the assay was initiated by the addition of 20 μl/well of Hanks buffer containing test compounds. For all assays, data were collected at 1 Hz for 10 seconds (baseline), at which time the compound containing stimulus buffers are added, and further measurements collected at 0.33 Hz for 3 min.
The statistical robustness of the nicotinic receptor Ca^2+ flux assays is determined from blanks and totals wells. […] The raw fluorescence units data files generated on the FLIPR plate reader are automatically exported and processed by in-house data analysis tools. The reduced percent activation data for each concentration of test compound are fit using MathIQ fitting engine (ID Business Solutions Limited, Surrey, UK). Data were analyzed by fitting maximum amplitudes of change in fluorescence, for Ca^2+ flux for a given condition of test compound. […] Test compound efficacy values (Ymax values) are expressed relative to a maximal response to acetylcholine in the total wells.

T1 sequence (Q05941 23-502): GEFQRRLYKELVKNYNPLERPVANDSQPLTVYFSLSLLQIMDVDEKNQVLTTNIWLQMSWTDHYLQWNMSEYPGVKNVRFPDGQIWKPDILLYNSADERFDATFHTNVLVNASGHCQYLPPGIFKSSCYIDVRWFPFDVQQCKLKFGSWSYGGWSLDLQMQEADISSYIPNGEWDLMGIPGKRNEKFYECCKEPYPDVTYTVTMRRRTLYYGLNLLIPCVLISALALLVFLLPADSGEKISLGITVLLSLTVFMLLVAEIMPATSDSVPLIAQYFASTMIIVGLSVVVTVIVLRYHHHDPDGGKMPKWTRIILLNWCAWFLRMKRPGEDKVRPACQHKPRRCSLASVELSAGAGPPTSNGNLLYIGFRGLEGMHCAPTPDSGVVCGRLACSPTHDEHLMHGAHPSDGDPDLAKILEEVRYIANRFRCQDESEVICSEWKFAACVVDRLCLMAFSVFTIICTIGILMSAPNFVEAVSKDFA

SMILES	EC50
CN1C(Nc2cc3ccccc3cn2)=NCC12CN1CCC2CC1 (stereo not shown) [Example 15]	787 nM
CN1C(Nc2ccc3ccccc3n2)=NCC12CN1CCC2CC1 (stereo not shown) [Example 40]	942 nM
Clc1cnc(NC2=NCC3(CN4CCC3CC4)N2)nc1 (stereo not shown) [Example 17]	286 nM

same assay, conditions: FLIPR α7-HI (EC50, nM), HEK 293 cells, Ca2+ flux; Table 1, activity class

SMILES	EC50
CN1C(Nc2ncc3ccccc3n2)=NCC12CN1CCC2CC1 (stereo not shown) [Example 27]	1000 to 100000 nM
CN1C(Nc2ccc(Cl)nn2)=NCC12CN1CCC2CC1 (stereo not shown) [Example 26]	100 to 1000 nM
Cc1nc(C)nc(NC2=NCC3(CN4CCC3CC4)N2)n1 (stereo not shown) [Example 43]	1000 to 100000 nM
Cc1ccc2nc(NC3=NCC4(CN5CCC4CC5)N3)sc2c1 (stereo not shown) [Example 63, N-(3,5-dihydro-1′-azaspiro[imidazole-4,3′-bicyclo[2.2.2]octane]-2-yl)-6-methylbenzo[d]thiazol-2-amine]	100 to 1000 nM
CN1C(Nc2cc3ccccc3cn2)=NCC12CN1CCC2CC1 (stereo not shown) [Example 15]	100 to 1000 nM
CN(C)c1ccc2nc(NC3=NCC4(CN5CCC4CC5)N3)sc2n1 (stereo not shown) [Example 48, N˜2˜-(1′,5′-Dihydrospiro[4-azabicyclo[2.2.2]octane-2,4′-imidazol]-2′-yl)-N˜5˜,N˜5˜-dimethyl[1,3]thiazolo[5,4-b]pyridine-2,5-diamine]	1000 to 100000 nM
CN1C(Nc2nccs2)=NCC12CN1CCC2CC1 (stereo not shown) [Example 10]	1000 to 100000 nM
COc1ccc2nc(NC3=NCC4(CN5CCC4CC5)N3)sc2c1 (stereo not shown) [Example 1, N-(6-Methoxy-1,3-benzothiazol-2-yl)-1′,5′-dihydrospiro[4-azabicyclo[2.2.2]octane-2,4′-imidazol]-2′-amine]	100 to 1000 nM
c1ccc2oc(NC3=NCC4(CN5CCC4CC5)N3)nc2c1 (stereo not shown) [Example 59]	< 100 nM
CN1C(Nc2nc3ccc(Br)nc3s2)=NCC12CN1CCC2CC1 (stereo not shown) [Example 50]	1000 to 100000 nM
COc1ncc2nc(NC3=NCC4(CN5CCC4CC5)N3)sc2n1 (stereo not shown) [Example 19, N-(5-Methoxy[1,3]thiazolo[5,4-d]pyrimidin-2-yl)-1′,5′-dihydrospiro[4-azabicyclo[2.2.2]octane-2,4′-imidazol]-2′-amine]	1000 to 100000 nM
Cc1ccc2nc(NC3=NCC4(CN5CCC4CC5)N3)oc2c1 (stereo not shown) [Example 8, N-(6-Methyl-1,3-benzoxazol-2-yl)-1′,5′-dihydrospiro[4-azabicyclo[2.2.2]octane-2,4′-imidazol]-2′-amine]	< 100 nM
c1ccc2sc(NC3=NCC4(CN5CCC4CC5)N3)nc2c1 (single isomer, unassigned) [Example 11b]	1000 to 100000 nM
Cc1cnc2nc(NC3=NCC4(CN5CCC4CC5)N3)sc2n1 (stereo not shown) [Example 41]	1000 to 100000 nM
COc1ccc2nc(NC3=NCC4(CN5CCC4CC5)N3C)sc2n1 (stereo not shown) [Example 47]	100 to 1000 nM
CN1C(Nc2ncc(Cl)cn2)=NCC12CN1CCC2CC1 (stereo not shown) [Example 18]	100 to 1000 nM
c1ccn2cc(NC3=NCC4(CN5CCC4CC5)N3)nc2c1 (stereo not shown) [Example 37]	1000 to 100000 nM
CN1C(Nc2ccc3ccccc3n2)=NCC12CN1CCC2CC1 (stereo not shown) [Example 40]	100 to 1000 nM

SMILES	EC50
Clc1ccc(NC2=NCC3(CN4CCC3CC4)N2)nn1 (stereo not shown) [Example 25]	1000 to 100000 nM
Clc1ccc(NC2=NCC3(CN4CCC3CC4)N2)nc1 (stereo not shown) [Example 13]	1000 to 100000 nM
Clc1cnc(NC2=NCC3(CN4CCC3CC4)N2)cn1 (stereo not shown) [Example 7, N-(5-Chloro-2-pyrazinyl)-1′,5′-dihydrospiro[4-azabicyclo[2.2.2]octane-2,4′-imidazol]-2′-amine]	100 to 1000 nM
Cc1ccc2c(NC3=NCC4(CN5CCC4CC5)N3)ncnn12 (stereo not shown) [Example 64]	100 to 1000 nM
CN1C(Nc2nc3ccc(Cl)nc3s2)=NCC12CN1CCC2CC1 (stereo not shown) [Example 29]	100 to 1000 nM
Fc1ccc2nc(NC3=NCC4(CN5CCC4CC5)N3)sc2n1 (stereo not shown) [Example 44, N-(5-Fluoro[1,3]thiazolo[5,4-b]pyridin-2-yl)-1′,5′-dihydrospiro[4-azabicyclo[2.2.2]octane-2,4′-imidazol]-2′-amine]	100 to 1000 nM
CN1C(Nc2ncc(-c3ccccc3)s2)=NCC12CN1CCC2CC1 (stereo not shown) [Example 5]	1000 to 100000 nM
Clc1ccc2nc(NC3=NCC4(CN5CCC4CC5)N3)sc2n1 (single isomer, unassigned) [Example 28a]	< 100 nM
Clc1cnc(NC2=NCC3(CN4CCC3CC4)N2)nc1 (stereo not shown) [Example 17]	100 to 1000 nM
CN1C(Nc2ccc(Cl)cn2)=NCC12CN1CCC2CC1 (stereo not shown) [Example 14]	1000 to 100000 nM
c1cnc2sc(NC3=NCC4(CN5CCC4CC5)N3)nc2n1 (stereo not shown) [Example 32, N-[1,3]Thiazolo[4,5-b]pyrazin-2-yl-1′,5′-dihydrospiro[4-azabicyclo[2.2.2]octane-2,4′-imidazol]-2′-amine]	100 to 1000 nM
c1ccc(COc2ccc3nc(NC4=NC5(CN4)CN4CCC5CC4)sc3n2)cc1 (stereo not shown) [Example 39, N-(5-(benzyloxy)[1,3]thiazolo[5,4-b]pyridin-2-yl)-1′,5′-dihydrospiro[4-azabicyclo[2.2.2]octane-2,4′-imidazol]-2′-amine]	> 1e+06 nM
COc1ncnc2sc(NC3=NCC4(CN5CCC4CC5)N3)nc12 (stereo not shown) [Example 38]	1000 to 100000 nM
c1ccc2sc(NC3=NCC4(CN5CCC4CC5)N3)nc2c1 (stereo not shown) [Example 11]	< 100 nM
Clc1cccc2nc(NC3=NCC4(CN5CCC4CC5)N3)sc12 (stereo not shown) [Example 53]	100 to 1000 nM
Brc1ccc2c(NC3=NCC4(CN5CCC4CC5)N3)ncnn12 (stereo not shown) [Example 66]	100 to 1000 nM
c1cnc2sc(NC3=NCC4(CN5CCC4CC5)N3)nc2c1 (stereo not shown) [Example 56]	< 100 nM

same assay, conditions: FLIPR α7-HI (EC50, nM), HEK 293 cells, Ca2+ flux; Table 2, activity class column

SMILES	EC50
COc1ccc2nc(NC3=NC4(CO3)CN3CCC4CC3)sc2c1 (stereo not shown) [Example 67, N-(6-Methoxybenzo[d]thiazol-2-yl)-5H-1′-azaspiro[oxazole-4,3′-bicyclo[2.2.2]octan]-2-amine]	1000 to 100000 nM

same assay, conditions: FLIPR α7-HI (EC50, nM), HEK 293 cells, Ca2+ flux; Table 3

SMILES	EC50
c1ccc(-c2cnc(NC3=NCCC4(CN5CCC4CC5)O3)s2)cc1 (stereo not shown) [Example 71]	87 nM
COc1cc(NC2=NCCC3(CN4CCC3CC4)O2)ncn1 (stereo not shown) [Example 80]	3650 nM
c1ccc2cc(NC3=NCCC4(CN5CCC4CC5)O3)ncc2c1 (stereo not shown) [Example 76]	264 nM

same assay, conditions: FLIPR α7-HI (EC50, nM), HEK 293 cells, Ca2+ flux; Table 3, activity class

SMILES	EC50
c1ccc2c(NC3=NCCC4(CN5CCC4CC5)O3)ncnc2c1 (stereo not shown) [Example 82]	100 to 1000 nM
c1ccc(-c2cnc(NC3=NCCC4(CN5CCC4CC5)O3)s2)cc1 (stereo not shown) [Example 71]	< 100 nM
Clc1ccc(NC2=NCCC3(CN4CCC3CC4)O2)nn1 (stereo not shown) [Example 83]	1000 to 100000 nM
c1ccc2cc(NC3=NCCC4(CN5CCC4CC5)O3)ncc2c1 (single isomer, unassigned) [Example 76b]	> 1e+06 nM
Cc1nnc(NC2=NCCC3(CN4CCC3CC4)O2)nc1C (stereo not shown) [Example 81]	1000 to 100000 nM
c1ccc2nc(NC3=NCCC4(CN5CCC4CC5)O3)ncc2c1 (stereo not shown) [Example 84]	100 to 1000 nM
COc1cc(NC2=NCCC3(CN4CCC3CC4)O2)ncn1 (stereo not shown) [Example 80]	1000 to 100000 nM
c1ccc2cc(NC3=NCCC4(CN5CCC4CC5)O3)ncc2c1 (stereo not shown) [Example 76]	100 to 1000 nM
Brc1ccc2nc(NC3=NCCC4(CN5CCC4CC5)O3)sc2n1 (stereo not shown) [Example 87]	1000 to 100000 nM
c1ccc2cc(NC3=NCCC4(CN5CCC4CC5)O3)ncc2c1 (single isomer, unassigned) [Example 76a]	100 to 1000 nM
c1ccc2nc(NC3=NCCC4(CN5CCC4CC5)O3)cnc2c1 (stereo not shown) [Example 85]	1000 to 100000 nM
COc1ncc2nc(NC3=NCCC4(CN5CCC4CC5)O3)sc2n1 (stereo not shown) [Example 79, N-(5-Methoxythiazolo[5,4-d]pyrimidin-2-yl)-4,5-dihydro-1′-azaspiro[[1,3]oxazine-6,3′-bicyclo[2.2.2]octan]-2-amine]	1000 to 100000 nM
Clc1cnc(NC2=NCCC3(CN4CCC3CC4)O2)nc1 (stereo not shown) [Example 78]	1000 to 100000 nM
